Results published in ChEMBL document CHEMBL6087461, “Cell-Permeable Peptide Inhibitors of the p53-hDM2 Interaction via Foldamer Helix Mimicry and Bis-Thioether Stapling” (J Med Chem, 2025).
Activity calls are given as the source filed them. The calls are words filed in the database; no cut-off is given here. Starred links: 1 amine or outer side, 2 acyl side, 3 side chain; linkers in the order of their positions; H or OH if unused. Positions of bridges follow the written chain, without caps; N, C: chain ends. Residues, ends and D or L forms follow the SMILES beside them. X1 = CC(C)[C@@H](CNC(N)=O)NC(=O)NC[C@H](C)NC(=O)NC[C@H](CSCCCCCC[*:1])N[*:2]

Columns and labels:
[1] = PROTAC activity at human DM2/p53 extracted from Escherichia coli interaction by measuring inhibition of interaction by time-resolved fluorescence energy transfer (TRFRET) detection method
[2] = molecular target: Tumour suppressor protein p53/Mdm4 (Homo sapiens, UniProt O15151); test: PROTAC activity at human DMX/p53 extracted from Escherichia coli interaction by measuring inhibition of interaction by time-resolved fluorescence energy transfer (TRFRET) detection method; format: protein assay
HCT-116 [3] = test: Induction of p53 level in human HCT-116 cells expressing wild type p53 measured after 6 hrs by Western blotting analysis; format: functional, cell-based; conditions: dose 0.1-40 µM
HCT-116 [4] = test: Induction of P21 RNA level in human HCT-116 cells expressing wild type p53 measured after 6 hrs by RT-qPCR analysis; format: functional, cell-based; conditions: dose 0.1-10 µM
HCT-116 [5] = test: Induction of hDM2 RNA level in human HCT-116 cells expressing wild type p53 measured after 6 hrs by RT-qPCR analysis; format: functional, cell-based; conditions: dose 0.1-10 µM
HCT-116 [6] = test: Cytotoxicity against human HCT-116 cells assessed as cell viability at 0.1 to 40 uM measured after 2 hrs incubation by LDH release assay; format: functional, cell-based; conditions: dose 0.1-40 µM
HCT-116 [7] = test: Cytotoxicity against human HCT116 cells expressing wild type p53 and overexpressing human DM2 assessed as cell viability measured after 72 hrs incubation by MTS cell viability assay; format: functional, cell-based; conditions: HCT-116, 72 h
MCF7 = test: Cytotoxicity against human MCF7 cells expressing wild type p53 and overexpressing human DMX assessed as cell viability measured after 72 hrs incubation by MTS cell viability assay; format: functional, cell-based; conditions: MCF7, 72 h
SW480 [8] = test: Cytotoxicity against human SW480 cells expressing p53 mutant and overexpressing human DM2 assessed as cell viability measured after 72 hrs incubation by MTS cell viability assay; format: functional, cell-based
SW480 [9] = test: Cytotoxicity against human SW480 cells expressing lower level of human DM2 assessed as cell viability measured after 72 hrs incubation by MTS cell viability assay; format: functional, cell-based
HCT-116 [10] = test: Effect on increase in wild type p53 level in human HCT-116 cells at 10 uM measured after 6 hrs by Western blot analysis; format: functional, cell-based
HCT-116 [11] = test: Effect on increase in p21 RNA level in human HCT-116 cells at 10 uM measured after 6 hrs by RT-qPCR analysis; format: functional, cell-based
HCT-116 [12] = test: Effect on increase in […] RNA level in human HCT-116 cells at 10 uM measured after 6 hrs by RT-qPCR analysis; format: functional, cell-based
[13] = molecular target: Tumour suppressor p53/oncoprotein Mdm2 (Homo sapiens) (UniProt P04637+Q00987); test: PROTAC activity at human MDM2/p53 extracted from Escherichia coli interaction by measuring inhibition of interaction at 100 nM by time-resolved fluorescence energy transfer (TRFRET) detection method relative to control; format: protein assay
[14] = molecular target: Tumour suppressor protein p53/Mdm4 (Homo sapiens) (UniProt P04637+O15151); test: PROTAC activity at human DMX/p53 extracted from Escherichia coli interaction at 100 nM by measuring inhibition of interaction by time-resolved fluorescence energy transfer (TRFRET) detection method relative to control; format: protein assay
SW480 [15] = test: Cytotoxicity against human SW480 cells expressing […] assessed as cell viability at 0.1 to 40 uM measured after 72 hrs incubation by MTS cell viability assay; format: functional, cell-based; conditions: dose 0.1-40 µM

Chain of Tumour suppressor protein p53/Mdm4 (P04637 whole entry): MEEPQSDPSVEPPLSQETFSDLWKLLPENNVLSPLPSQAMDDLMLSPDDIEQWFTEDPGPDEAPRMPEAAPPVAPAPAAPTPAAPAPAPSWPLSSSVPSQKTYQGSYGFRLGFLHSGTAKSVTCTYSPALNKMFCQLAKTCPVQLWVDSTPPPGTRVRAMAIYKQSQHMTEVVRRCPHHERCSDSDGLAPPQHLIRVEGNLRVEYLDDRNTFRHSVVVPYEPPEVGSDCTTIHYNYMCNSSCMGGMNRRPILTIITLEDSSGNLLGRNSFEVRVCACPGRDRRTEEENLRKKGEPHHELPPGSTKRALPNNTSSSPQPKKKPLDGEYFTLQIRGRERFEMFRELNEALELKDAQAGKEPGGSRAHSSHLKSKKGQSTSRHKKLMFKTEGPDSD
Chain of Tumour suppressor protein p53/Mdm4 (O15151 whole entry): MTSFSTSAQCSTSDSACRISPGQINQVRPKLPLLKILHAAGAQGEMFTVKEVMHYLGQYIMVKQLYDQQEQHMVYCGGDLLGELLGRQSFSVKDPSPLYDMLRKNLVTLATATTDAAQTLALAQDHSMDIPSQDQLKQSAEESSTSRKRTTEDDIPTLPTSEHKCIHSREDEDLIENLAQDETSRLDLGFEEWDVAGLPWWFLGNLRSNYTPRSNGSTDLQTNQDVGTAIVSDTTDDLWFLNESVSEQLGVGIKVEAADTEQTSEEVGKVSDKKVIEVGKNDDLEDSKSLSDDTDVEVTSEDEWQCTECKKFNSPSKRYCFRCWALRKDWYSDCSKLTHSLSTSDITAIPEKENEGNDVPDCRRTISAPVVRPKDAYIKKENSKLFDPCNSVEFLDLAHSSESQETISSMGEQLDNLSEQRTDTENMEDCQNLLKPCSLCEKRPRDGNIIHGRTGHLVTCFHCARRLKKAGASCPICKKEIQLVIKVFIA
Chain of Tumour suppressor p53/oncoprotein Mdm2 (Homo sapiens) (P04637 whole entry, looked up): as the sequence (P04637 whole entry) above
Chain of Tumour suppressor p53/oncoprotein Mdm2 (Homo sapiens) (Q00987 whole entry, looked up): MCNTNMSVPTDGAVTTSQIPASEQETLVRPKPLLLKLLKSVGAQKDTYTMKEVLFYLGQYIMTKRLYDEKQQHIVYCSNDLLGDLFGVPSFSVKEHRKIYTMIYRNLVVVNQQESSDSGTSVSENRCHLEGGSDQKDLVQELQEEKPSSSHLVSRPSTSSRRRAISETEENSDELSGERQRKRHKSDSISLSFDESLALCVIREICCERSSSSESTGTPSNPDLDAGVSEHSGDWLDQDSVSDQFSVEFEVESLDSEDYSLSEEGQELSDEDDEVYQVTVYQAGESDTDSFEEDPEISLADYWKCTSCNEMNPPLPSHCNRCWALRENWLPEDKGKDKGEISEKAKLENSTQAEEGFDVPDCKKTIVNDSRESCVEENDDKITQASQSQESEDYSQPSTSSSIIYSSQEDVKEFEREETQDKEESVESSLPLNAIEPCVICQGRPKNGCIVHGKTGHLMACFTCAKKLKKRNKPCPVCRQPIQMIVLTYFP
Chain of Tumour suppressor protein p53/Mdm4 (Homo sapiens) (O15151 whole entry, looked up): as the sequence (O15151 whole entry) above
Chain of Tumour suppressor protein p53/Mdm4 (Homo sapiens) (P04637 whole entry, looked up): as the sequence (P04637 whole entry) above

Row | Structure (SMILES) | IC50 [1] [µM] | IC50 [2] [µM] | Activity (HCT-116 [3]) | Activity (HCT-116 [4]) | Activity (HCT-116 [5]) | Activity (HCT-116 [6]) | IC50 (HCT-116 [7]) [µM] | IC50 (MCF7) [µM] | Activity (SW480 [8]) | Activity (SW480 [9]) | Activity (HCT-116 [10]) | Activity (HCT-116 [11]) | Activity (HCT-116 [12]) | inhibition [13] | Activity [14] | Activity (SW480 [15])
1 | CC(=O)N[C@@H](CCCCN)C(=O)N[C@H](C(=O)N[C@@H](Cc1ccccc1)C(=O)N[C@H]1CSCCCCCCSC[C@@H](CNC(=O)N[C@@H](C)CNC(=O)N[C@H](CNC(N)=O)C(C)C)NC(=O)[C@H](Cc2c[nH]c3ccccc23)NC(=O)[C@H](Cc2ccc(O)cc2)NC(=O)[C@H](CCC(=O)O)NC1=O)[C@@H](C)O (Ac-KTFCEYW; linker 4-C via X1) | 0.00924 | 73.3 | Dose-dependent-effect; Similar To Nutlin-3A | Dose-dependent-effect | Dose-dependent-effect | Not active; Indicating Absence Of Direct Effect On Cell Membranes | – | – | – | – | – | – | – | – | – | –
2 | CC(C)[C@@H](CNC(N)=O)NC(=O)NC[C@H](C)NC(=O)NC[C@@H]1CSCCCCCCSC[C@H](NC(=O)[C@H](Cc2ccccc2)NC(=O)[C@H](CO)NC(=O)[C@H](CCCCN)NC(=O)[C@H](CCCNC(=N)N)NC(=O)[C@H](CCCNC(=N)N)NC(=O)[C@@H](N)CCCNC(=N)N)C(=O)N[C@@H](CCC(=O)O)C(=O)N[C@@H](Cc2ccc(O)cc2)C(=O)N[C@@H](Cc2c[nH]c3ccccc23)C(=O)N1 (H-RRRKSFCEYW; linker 7-C via X1) | 0.0046 | 22 | – | – | – | – | 3.86 | 3.98 | Active | Active | inactive | inactive | inactive | – | – | –
3 | CC(C)[C@@H](CNC(N)=O)NC(=O)NC[C@H](C)NC(=O)NC[C@@H]1CSCCCCCCSC[C@H](NC(=O)[C@H](Cc2ccccc2)NC(=O)[C@H](CO)NC(=O)[C@H](CCCCN)NC(=O)[C@@H](N)CCCCN)C(=O)N[C@@H](CCC(=O)O)C(=O)N[C@@H](Cc2ccc(O)cc2)C(=O)N[C@@H](Cc2c[nH]c3ccccc23)C(=O)N1 (H-KKSFCEYW; linker 5-C via X1) | 0.00895 | 45.4 | – | – | – | – | – | – | – | – | – | – | – | inactive | inactive | Active
4 | CC(=O)N[C@@H](CC(C)C)C(=O)N[C@H](C(=O)N[C@@H](Cc1ccccc1)C(=O)N[C@H]1CSCCCCCCSC[C@@H](CNC(=O)N[C@@H](C)CNC(=O)N[C@H](CNC(N)=O)C(C)C)NC(=O)[C@H](Cc2c[nH]c3ccccc23)NC(=O)[C@H](Cc2ccc(O)cc2)NC(=O)[C@H](CCC(=O)O)NC1=O)[C@@H](C)O (Ac-LTFCEYW; linker 4-C via X1) | 0.0158 | 262 | Dose-dependent-effect; Similar To Nutlin-3A And Able To Increase As Low As 0.5 Um | Dose-dependent-effect | Dose-dependent-effect | Not active; Indicating Absence Of Direct Effect On Cell Membranes | – | – | – | – | – | – | – | – | – | –
